Read-outs that look alike come from different tables or passages of the source.

Test [1] has as its target T1, adenosine A2 receptor (Rattus norvegicus, UniProt P30543).
T1 construct: from tissue
Nature of the test: in vitro binding to adenosine A2 receptor ([3H]-CGS 21680). The source says:
(§1) Evaluation of in vitro binding to adenosine A1 and A2 receptors.
(§2) The methods both for the above in vitro examination of the compounds and the method used for DMCM-induced seizures in vivo are summarized in the European Journal of Pharmacology, 1993, 224, 221-228.

Test [2] has as its target T2, adenosine A1 receptor (Rattus norvegicus, UniProt P25099).
T2 construct: from tissue
T2 sequence (P25099 1-326): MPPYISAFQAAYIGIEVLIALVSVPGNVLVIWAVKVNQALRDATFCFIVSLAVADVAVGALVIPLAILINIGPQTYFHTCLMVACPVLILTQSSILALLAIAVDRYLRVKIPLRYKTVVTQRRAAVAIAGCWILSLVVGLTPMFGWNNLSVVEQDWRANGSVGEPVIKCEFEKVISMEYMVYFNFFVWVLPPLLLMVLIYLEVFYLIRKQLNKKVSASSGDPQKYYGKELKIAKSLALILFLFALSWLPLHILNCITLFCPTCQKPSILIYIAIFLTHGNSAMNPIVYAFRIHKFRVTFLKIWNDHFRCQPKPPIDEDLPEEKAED
Nature of the test: in vitro binding to adenosine A1 receptor ([3H]-R-PIA). The following applies: for Ki: radioligand [3H]-R-PIA; for Ratio A2/A1: ratio of A2 to A1 receptor binding Ki.
Source text: as §1, §2

The nature of test [3]: DMCM-induced seizures in vivo. The following applies: read-out: DMCM-ind. seizures (ED50, mg/kg).
Source text: as §2

Test [4] relates to A1 receptor. The following applies: literature, qualitative; cited from earlier work.
Where [5] appears, read: radioligand [3H]-CGS 21680, read-out: A2 Receptor Binding (Ki).
Setting [6] is: ED50, DMCM-induced seizures in vivo.

T1 sequence (P30543 whole entry): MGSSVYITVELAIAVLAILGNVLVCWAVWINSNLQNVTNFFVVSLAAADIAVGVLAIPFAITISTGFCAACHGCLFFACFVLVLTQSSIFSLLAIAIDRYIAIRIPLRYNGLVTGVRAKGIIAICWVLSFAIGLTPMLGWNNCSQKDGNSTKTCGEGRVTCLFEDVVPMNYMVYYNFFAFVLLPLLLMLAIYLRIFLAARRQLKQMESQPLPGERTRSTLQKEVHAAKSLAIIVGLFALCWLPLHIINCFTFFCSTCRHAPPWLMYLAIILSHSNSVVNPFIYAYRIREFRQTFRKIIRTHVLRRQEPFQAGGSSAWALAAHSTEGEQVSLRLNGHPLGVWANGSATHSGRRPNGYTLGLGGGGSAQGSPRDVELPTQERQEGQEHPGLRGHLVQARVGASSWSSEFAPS

In the case of `O[C@@H]1[C@H](O)[C@@H](CCl)O[C@H]1n1cnc2c(NN3CCCCC3)nc(Cl)nc21` [Example 1, 2,5'-Dichloro-5'-deoxy-N-(1-piperidinyl)adenosine], the Ki (commonly a measure of affinity in units of concentration, obtained from inhibition or displacement) was determined as 2740 nM in test [1] (setting [5]) and 6.4 nM in test [2]. Moreover, the “Ratio A2/A1” value in test [2] turned out to be 428. Further, the ED50 in test [3] (setting [6]) is 0.4 mg/kg.
The like results for `CONc1nc(Cl)nc2c1ncn2[C@@H]1O[C@H](CCl)[C@@H](O)[C@H]1O` [Example 12, 2,5'-Dichloro-5'-deoxy-N-methoxyadenosine] were, in that order, 4660 nM, 74 nM, 63 and 6.1 mg/kg.
For `OC[C@H]1O[C@@H](n2cnc3c(NC4CCCC4)nc(Cl)nc32)[C@H](O)[C@@H]1O` [CCPA, 2-chloro-N-cyclopentyladenosine], the “selectivity for the A1 receptor over the A2 receptor (in words)” value in test [4] is reported as “most selective for the A1 receptor over the A2 receptor”.
For the compound `CN(C)Nc1nc(Cl)nc2c1ncn2[C@@H]1O[C@H](CCl)[C@@H](O)[C@H]1O` [Example 11, 2,5'-Dichloro-5'-deoxy-N-(dimethylamino)adenosine], the Ki in test [1] (setting [5]) was 6600 nM. Besides, in test [2], the Ki was found to be 11 nM and the “Ratio A2/A1” value is given as 600. The ED50 in test [3] (setting [6]) was determined as 4.7 mg/kg.
`OC[C@H]1O[C@@H](n2cnc3c(NC4CCCC4)ncnc32)[C@H](O)[C@@H]1O` [CPA, N-(cyclopentyl)adenosine, reference compound] yielded a Ki in test [1] of 192 nM. Besides, in test [3], the ED50 came to 0.2 mg/kg.
Consider `C[C@H](Cc1ccccc1)Nc1ncnc2c1ncn2[C@@H]1O[C@H](CO)[C@@H](O)[C@H]1O` [R-PIA, (R)-N-(1-phenyl-2-propyl)adenosine, reference compound], for which, in test [3], the ED50 came to 0.5 mg/kg.
Consider `O[C@@H]1[C@H](O)[C@@H](CF)O[C@H]1n1cnc2c(NN3CCCCC3)nc(Cl)nc21` [Example 18, 2-Chloro-5'-deoxy-5'-fluoro-N-(1-piperidinyl)adenosine], for which, in test [1] (setting [5]), the Ki was found to be 2420 nM. In test [2], the affinity corresponds to a Ki of 5.3 nM and the “Ratio A2/A1” value was 457. The ED50 in test [3] (setting [6]) is 1 mg/kg.
